Source: patent US5968920A, “Compounds having a benzisoselen-azoline and -azine structure, method for preparing same and therapeutic uses thereof” (Oxis Isle of Man, Limited, priority 1994, dated 1999)

How the values were obtained:
[1] = test system: rat; test: Tolerance after repeated oral administration to the rat in vivo; set-up: species or system Sprague-Dawley rat; conditions: 14 days
Experimental: Male adult Sprague-Dawley rats were randomly divided into 4 groups. To one group of 10 rats and another group of 15 rats, one dose of 10 μmoles and one dose of 100 μmoles per kilogram of body weight of BXT-51072 were respectively orally administered (force feeding) each day for 14 days. These doses were administered using an aqueous solution containing 1% of sodium carboxymethylcellulose (CMC). Using the same procedure, a third group of 12 rats received only the vector (1% CMC) and a […] group of 3 rats received no force feeding.
In order to evaluate any toxicity in the test compound, all the animals were regularly weighed over the 14 days. Their appearance and behavior were observed daily.
About 16 hours after the final administration, the rats were anaesthetised with ketamine and blood samples were taken by intra-cardiac tapping to measure different hematological and biochemical parameters. The weight curves of the animals are shown in FIGS. 5 and 6 and Table 3 summarises the results of measurements carried out on the blood of the animals and the corresponding deviations.

[2] = test system: interleukin 8 (IL-8); test: Endothelial production of interleukin 8 induced by TNF-α; type: cell-based, human; conditions: Homo sapiens, 4 h, read-out: inhibition of IL-8 production induced by TNF-α
Experimental: Human endothelial cells were cultivated under the same conditions as those described for Example 18.
When the cells were near confluence, they were incubated for one hour in the presence or absence of the following compounds: BXT-51072, BXT-51077 or ebselen. Each of these compounds was incorporated into culture medium containing 2% of foetal calf serum at 10 μM, all other conditions being the same. […] After four hours of incubation, the interleukin 8 (IL-8) in the culture medium was measured.

[3] = 10 and 100 μmoles/kg oral daily

CC1(C)CN[Se]c2ccccc21 [BXT-51072, 4,4-dimethyl-benzisoselenazine]
BAS (basophiles) ([1]; 10 μmoles/kg oral, n 4): 0% | EOS (eosinophiles) ([1]; 10 μmoles/kg oral, n 4): 0% | GB (White cells) ([1]; 10 μmoles/kg oral, n 4): 8.45 G/l | GR (Red cells) ([1]; 10 μmoles/kg oral, n 4): 6.88 T/l | HB (Hemoglobin) ([1]; 10 μmoles/kg oral, n 4): 9.08 mM | HCT (Hematocrit) ([1]; 10 μmoles/kg oral, n 4): 0.41 | LYM (Lymphocytes) ([1]; 10 μmoles/kg oral, n 4): 82% | MON (Monocytes) ([1]; 10 μmoles/kg oral, n 4): 0% | NEU (neutrophiles) ([1]; 10 μmoles/kg oral, n 4): 18% | PAL (Alkaline phosphalase) ([1]; 10 μmoles/kg oral, n 4): 320 Ul/l | PLT (Platelets) ([1]; 10 μmoles/kg oral, n 4): 541 G/l | Urea ([1]; 10 μmoles/kg oral, n 4): 4.03 mM | VGM (Average cell volume of GR) ([1]; 10 μmoles/kg oral, n 4): 59.8 II | K^+ ([1]; 10 μmoles/kg oral, n = 1): 5.0 mM | Na^+ ([1]; 10 μmoles/kg oral, n = 1): 143 mM | Cl^- ([1]; 10 μmoles/kg oral, n = 2): 93 mM | Prot (Proteins) ([1]; 10 μmoles/kg oral, n = 2): 53.9 g/L | ALAT (Alanine aminotransferase) ([1]; 10 μmoles/kg oral, n = 3): 50 Ul/l | ASAT (Aspartale aminotransferase) ([1]; 10 μmoles/kg oral, n = 3): 136 Ul/l | weight gain ([1]; 100 μmoles/kg oral daily): slight slowing in weight gain | BAS (basophiles) ([1]; 100 μmoles/kg oral, n 7): 0% | EOS (eosinophiles) ([1]; 100 μmoles/kg oral, n 7): 1% | GB (White cells) ([1]; 100 μmoles/kg oral, n 7): 7.57 G/l | GR (Red cells) ([1]; 100 μmoles/kg oral, n 7): 7.44 T/l | HB (Hemoglobin) ([1]; 100 μmoles/kg oral, n 7): 9.46 mM | HCT (Hematocrit) ([1]; 100 μmoles/kg oral, n 7): 0.43 | LYM (Lymphocytes) ([1]; 100 μmoles/kg oral, n 7): 81% | MON (Monocytes) ([1]; 100 μmoles/kg oral, n 7): 0% | NEU (neutrophiles) ([1]; 100 μmoles/kg oral, n 7): 18% | PLT (Platelets) ([1]; 100 μmoles/kg oral, n 7): 517 G/l | VGM (Average cell volume of GR) ([1]; 100 μmoles/kg oral, n 7): 57.6 II | K^+ ([1]; 100 μmoles/kg oral, n = 2): 5.0 mM | Na^+ ([1]; 100 μmoles/kg oral, n = 2): 143 mM | ALAT (Alanine aminotransferase) ([1]; 100 μmoles/kg oral, n = 4): 58 Ul/l | ASAT (Aspartale aminotransferase) ([1]; 100 μmoles/kg oral, n = 4): 133 Ul/l | Cl^- ([1]; 100 μmoles/kg oral, n = 4): 93 mM | Prot (Proteins) ([1]; 100 μmoles/kg oral, n = 4): 55.0 g/L | PAL (Alkaline phosphalase) ([1]; 100 μmoles/kg oral, n = 5): 310 Ul/l | Urea ([1]; 100 μmoles/kg oral, n = 5): 4.05 mM | mortality [1, 3]: none of the animals had died | other signs of toxicity [1, 3]: no other sign of toxicity | tolerance ([1]; repeated oral administration): tolerated well | inhibition at 10 µM [2]: ≥ 70%
